Measured values taken from patent US11207431B2, “HDAC6 inhibitors and imaging agents” (The General Hospital Corporation, priority 2017, dated 2021).
One block for each compound: values may come before it.

Assays:
[1] = molecular target: T1, HDAC3 (Homo sapiens (Human), UniProt O15379); assay: IC50 values of comparison compounds B-F (Table 1B); format: biochemical; settings: comparison compound C, source not stated
Description: (§1) [drawing 62] (see e.g., WO 2015/058106; Fluorescent-intensity-based enzymatic assay, multiple runs; duplicates);

[2] = molecular target: HDAC4 (Homo sapiens (Human), UniProt P56524); assay: IC50 values of comparison compounds B-F (Table 1B); format: biochemical; settings: comparison compound C, source not stated
Sequence of HDAC4 (P56524 whole entry): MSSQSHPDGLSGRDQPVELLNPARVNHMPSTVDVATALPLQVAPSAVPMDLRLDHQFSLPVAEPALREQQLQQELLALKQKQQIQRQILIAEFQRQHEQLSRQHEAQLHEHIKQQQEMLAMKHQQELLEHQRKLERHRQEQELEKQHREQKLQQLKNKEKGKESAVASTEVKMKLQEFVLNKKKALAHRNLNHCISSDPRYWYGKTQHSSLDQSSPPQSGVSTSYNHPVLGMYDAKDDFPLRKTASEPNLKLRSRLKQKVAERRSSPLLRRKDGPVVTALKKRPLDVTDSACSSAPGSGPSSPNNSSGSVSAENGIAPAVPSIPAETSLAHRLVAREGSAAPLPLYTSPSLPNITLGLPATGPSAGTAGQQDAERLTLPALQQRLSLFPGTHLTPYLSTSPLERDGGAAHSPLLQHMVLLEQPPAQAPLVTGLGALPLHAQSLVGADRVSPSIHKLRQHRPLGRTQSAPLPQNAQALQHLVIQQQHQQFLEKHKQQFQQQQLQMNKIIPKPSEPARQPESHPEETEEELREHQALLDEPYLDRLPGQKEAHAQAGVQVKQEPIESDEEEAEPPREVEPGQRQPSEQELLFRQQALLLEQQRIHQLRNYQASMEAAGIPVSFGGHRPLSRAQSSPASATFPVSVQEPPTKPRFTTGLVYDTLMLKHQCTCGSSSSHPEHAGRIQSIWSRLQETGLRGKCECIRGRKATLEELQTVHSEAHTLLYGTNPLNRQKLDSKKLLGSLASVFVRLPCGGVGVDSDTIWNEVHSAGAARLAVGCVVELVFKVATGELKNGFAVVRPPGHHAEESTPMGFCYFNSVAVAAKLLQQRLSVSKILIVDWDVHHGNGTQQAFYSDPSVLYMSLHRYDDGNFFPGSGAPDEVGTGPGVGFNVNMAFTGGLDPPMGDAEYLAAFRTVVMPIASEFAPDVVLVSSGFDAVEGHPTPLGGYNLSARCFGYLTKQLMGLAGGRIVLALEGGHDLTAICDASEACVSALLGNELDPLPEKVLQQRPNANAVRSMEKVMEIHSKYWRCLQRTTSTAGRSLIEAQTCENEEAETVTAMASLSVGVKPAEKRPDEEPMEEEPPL
Description: as §1

[3] = molecular target: HDAC11 (Homo sapiens (Human), UniProt Q96DB2); assay: IC50 values of comparison compounds B-F (Table 1B); format: biochemical; settings: comparison compound C, source not stated
Description: as §1

[4] = molecular target: T2, HDAC2 (Homo sapiens (Human), UniProt Q92769); assay: IC50 values of comparison compounds B-F (Table 1B); format: biochemical; settings: comparison compound C, source not stated
T2 sequence (Q92769 whole entry): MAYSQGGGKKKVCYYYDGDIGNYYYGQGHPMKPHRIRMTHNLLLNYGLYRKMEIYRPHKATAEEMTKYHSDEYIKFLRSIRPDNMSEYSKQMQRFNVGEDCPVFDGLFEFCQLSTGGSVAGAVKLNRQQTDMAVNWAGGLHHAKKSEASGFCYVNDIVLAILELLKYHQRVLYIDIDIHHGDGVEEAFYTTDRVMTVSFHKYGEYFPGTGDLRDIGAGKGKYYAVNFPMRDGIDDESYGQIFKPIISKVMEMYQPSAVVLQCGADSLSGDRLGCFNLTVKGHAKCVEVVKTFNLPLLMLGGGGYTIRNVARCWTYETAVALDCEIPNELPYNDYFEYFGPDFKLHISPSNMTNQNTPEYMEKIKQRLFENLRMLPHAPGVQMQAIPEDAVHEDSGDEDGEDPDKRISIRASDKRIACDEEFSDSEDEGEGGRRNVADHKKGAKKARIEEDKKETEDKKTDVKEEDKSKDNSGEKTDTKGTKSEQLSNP
Description: as §1

[5] = molecular target: T3, HDAC1 (Homo sapiens (Human), UniProt Q13547); assay: IC50 values of comparison compounds B-F (Table 1B); format: biochemical; settings: comparison compound C, source not stated
T3 sequence (Q13547 whole entry): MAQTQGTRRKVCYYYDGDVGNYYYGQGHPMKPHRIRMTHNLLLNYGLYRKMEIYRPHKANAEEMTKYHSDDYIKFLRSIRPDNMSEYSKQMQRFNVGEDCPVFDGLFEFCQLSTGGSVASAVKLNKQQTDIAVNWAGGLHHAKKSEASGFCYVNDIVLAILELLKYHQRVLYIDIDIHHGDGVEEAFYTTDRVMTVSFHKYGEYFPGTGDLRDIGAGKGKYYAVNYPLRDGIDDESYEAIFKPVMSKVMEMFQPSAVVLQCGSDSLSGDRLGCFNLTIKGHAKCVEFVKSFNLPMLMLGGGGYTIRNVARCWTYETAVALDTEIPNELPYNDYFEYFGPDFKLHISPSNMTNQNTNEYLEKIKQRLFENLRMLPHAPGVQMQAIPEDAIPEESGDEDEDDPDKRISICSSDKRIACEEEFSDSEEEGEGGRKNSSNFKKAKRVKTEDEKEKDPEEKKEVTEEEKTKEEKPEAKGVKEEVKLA
Description: as §1

[6] = molecular target: HDAC8 (Homo sapiens (Human), UniProt Q9BY41); assay: IC50 values of comparison compounds B-F (Table 1B); format: biochemical; settings: comparison compound C, source not stated
Sequence of HDAC8 (Q9BY41 whole entry): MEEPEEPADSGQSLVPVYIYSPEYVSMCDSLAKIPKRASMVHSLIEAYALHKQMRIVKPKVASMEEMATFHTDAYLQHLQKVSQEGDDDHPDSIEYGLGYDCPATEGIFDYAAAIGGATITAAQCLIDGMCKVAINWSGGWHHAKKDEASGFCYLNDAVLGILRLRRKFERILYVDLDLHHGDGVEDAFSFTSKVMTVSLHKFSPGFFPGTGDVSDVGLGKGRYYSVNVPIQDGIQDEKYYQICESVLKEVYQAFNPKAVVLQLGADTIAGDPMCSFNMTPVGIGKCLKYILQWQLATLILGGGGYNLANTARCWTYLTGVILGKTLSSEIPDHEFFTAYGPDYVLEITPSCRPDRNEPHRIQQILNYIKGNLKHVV
Description: as §1

[7] = molecular target: T4, HDAC10 (Homo sapiens (Human), UniProt Q969S8); assay: IC50 values of comparison compounds B-F (Table 1B); format: biochemical; settings: comparison compound C, source not stated
Description: as §1
Target sequence in this assay (Q969S8 whole entry, species assumed): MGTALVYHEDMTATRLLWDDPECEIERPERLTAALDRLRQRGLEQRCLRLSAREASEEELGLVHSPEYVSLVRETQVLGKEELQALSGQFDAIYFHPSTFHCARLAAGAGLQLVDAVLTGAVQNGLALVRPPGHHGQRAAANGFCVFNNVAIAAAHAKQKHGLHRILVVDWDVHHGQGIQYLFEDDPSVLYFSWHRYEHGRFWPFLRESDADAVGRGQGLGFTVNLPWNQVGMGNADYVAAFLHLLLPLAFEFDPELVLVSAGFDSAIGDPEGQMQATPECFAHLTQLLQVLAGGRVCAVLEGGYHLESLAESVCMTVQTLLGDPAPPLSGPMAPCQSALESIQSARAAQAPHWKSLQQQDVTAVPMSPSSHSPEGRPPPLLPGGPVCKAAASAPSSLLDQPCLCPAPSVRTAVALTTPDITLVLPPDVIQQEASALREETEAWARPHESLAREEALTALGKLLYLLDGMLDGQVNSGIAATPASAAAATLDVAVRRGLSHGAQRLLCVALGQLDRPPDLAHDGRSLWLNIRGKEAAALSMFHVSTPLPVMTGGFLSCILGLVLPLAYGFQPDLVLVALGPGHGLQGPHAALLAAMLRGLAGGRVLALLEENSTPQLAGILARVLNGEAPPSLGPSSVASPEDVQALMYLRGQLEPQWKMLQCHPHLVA

[8] = molecular target: HDAC5 (Homo sapiens (Human), UniProt Q9UQL6); assay: IC50 values of comparison compounds B-F (Table 1B); format: biochemical; settings: comparison compound C, source not stated
Description: as §1

[9] = molecular target: HDAC9 (Homo sapiens (Human), UniProt Q9UKV0); assay: IC50 values of comparison compounds B-F (Table 1B); format: biochemical; settings: comparison compound C, source not stated
Description: as §1

[10] = molecular target: HDAC6 (Homo sapiens (Human), UniProt Q9UBN7); settings: read-out: HDAC6 IC50; comparison compound C, source not stated
Sequence of HDAC6 (Homo sapiens (Human), UniProt Q9UBN7) (Q9UBN7 whole entry): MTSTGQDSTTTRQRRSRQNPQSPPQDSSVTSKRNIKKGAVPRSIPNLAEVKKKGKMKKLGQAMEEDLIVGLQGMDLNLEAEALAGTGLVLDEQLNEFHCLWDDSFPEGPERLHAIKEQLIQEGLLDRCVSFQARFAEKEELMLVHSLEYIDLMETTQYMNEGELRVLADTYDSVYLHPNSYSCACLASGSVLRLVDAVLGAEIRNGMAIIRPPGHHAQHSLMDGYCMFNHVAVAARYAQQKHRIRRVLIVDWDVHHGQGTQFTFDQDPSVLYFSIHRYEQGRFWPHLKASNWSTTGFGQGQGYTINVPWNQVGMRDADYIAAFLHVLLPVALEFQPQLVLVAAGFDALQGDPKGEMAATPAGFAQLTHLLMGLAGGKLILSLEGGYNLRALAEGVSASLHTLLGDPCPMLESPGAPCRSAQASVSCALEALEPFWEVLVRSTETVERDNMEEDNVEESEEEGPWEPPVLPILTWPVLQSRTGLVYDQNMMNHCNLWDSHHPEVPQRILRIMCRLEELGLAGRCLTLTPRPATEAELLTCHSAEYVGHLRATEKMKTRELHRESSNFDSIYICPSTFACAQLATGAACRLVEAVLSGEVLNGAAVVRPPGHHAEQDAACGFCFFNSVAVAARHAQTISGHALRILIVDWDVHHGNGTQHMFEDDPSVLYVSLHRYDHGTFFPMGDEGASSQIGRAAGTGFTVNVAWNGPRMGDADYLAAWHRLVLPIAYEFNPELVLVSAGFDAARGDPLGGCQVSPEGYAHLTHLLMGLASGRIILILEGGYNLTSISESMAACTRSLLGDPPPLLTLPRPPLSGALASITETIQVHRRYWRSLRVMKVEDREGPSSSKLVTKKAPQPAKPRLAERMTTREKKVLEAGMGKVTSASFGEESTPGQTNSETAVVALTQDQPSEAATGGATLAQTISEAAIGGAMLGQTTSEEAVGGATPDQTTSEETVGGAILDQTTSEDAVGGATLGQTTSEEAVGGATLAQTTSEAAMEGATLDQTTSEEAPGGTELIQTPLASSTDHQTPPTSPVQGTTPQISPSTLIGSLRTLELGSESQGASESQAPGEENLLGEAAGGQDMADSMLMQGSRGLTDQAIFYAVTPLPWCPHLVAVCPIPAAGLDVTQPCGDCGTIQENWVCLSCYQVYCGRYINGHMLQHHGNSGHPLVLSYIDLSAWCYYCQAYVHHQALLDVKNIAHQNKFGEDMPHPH

[11] = molecular target: T1, HDAC3; assay: IC50 assay, BPS Biosciences fluorescence assay; format: biochemical; settings: IC50 measured by BPS
[12] = PET/CT imaging in rats; format: in vivo, Sprague-Dawley rats
Protocol: 8 male Sprague-Dawley rats (Charles River Laboratories) were used for PET imaging. […] For intravenous administration, a catheter with an extension line was placed in a lateral tail vein. Each animal received a bolus injection of either vehicle (1:1:8 DMSO/Tween80/saline) or blocking agent in solution (1 mg/kg, 1 mg/mL in 1:1:8 DMSO/Tween80/saline) immediately prior to injection of the radiotracer.
After injection of a radiotracer bolus ([…] Example 2) a 90 min dynamic PET scan was acquired in pairs for all animals. PET scans were performed on a GammaMedica Triumph PET/CT/SPECT scanner, corrected for attenuation with a μ-map derived from the corresponding CT image, which was acquired immediately following the PET scan. The dynamic PET data was binned into 38 timeframes (8×15 s, 8×1 min, 10×2 min, 12×5) and reconstructed individually via an iterative MLEM (maximum likelihood expectation maximization) algorithm in 16 iterations.
PET images were to the CT image acquired from the same animal using AMIDE Data sets were cropped and all further image analysis was conducted using PMOD 3.3 (PMOD Technologies, Zurich, Switzerland). For maximum consistency, the data were coregistered to the Schiffer Px Rat rat brain template and data was derived from a whole brain VOI (volumes of interest) for time activity curves.

[13] = Microsome stability; settings: human, microsomes
[14] = in vitro; settings: mouse, microsomes
[15] = Hepatocyte stability; settings: human, hepatocytes
[16] = molecular target: HDAC6 (Rattus norvegicus (Rat), UniProt A0A8I6GM68); assay: Autoradiography competition with radiolabeled Example 2 on rat brain slices; format: binding, Sprague-Dawley rat; settings: blocking compound at 1 μM
Protocol: Sagittal slices of Sprague-Dawley rat brains were sectioned (10 μm) with a cryostat (Thermo Scientific HM550) and mounted onto ColorFrost Plus microscope slides (Fisher Scientific 12-550-18) and stored at −20° C. […] After 15 min, 50 μCi of the radiolabeled compound of Example 2 was added to each bath. After 15 minutes, all slides were washed by dipping 10× into buffer and subsequently submerged in 50 mL baths of buffer at 4° C. for 5 minutes. The slides were dried at 35° C. in a vacuum chamber. A phosphorus screen (Perkin Elmer 7001723) was exposed with the slides for 45 minutes and subsequently imaged with a Cyclone Plus Storage Phosphor (Perkin Elmer) detector. ImageJ was used to apply a Gaussian blur (3.0 radius) smoothing and a lookup table (Royal) with equivalent thresholds for brightness was applied. Raw intensity values from gray and white matter were quantified with the ImageJ measurement tool.

[17] = molecular target: T3, HDAC1; assay: IC50 assay, BPS Biosciences fluorescence assay; format: biochemical; settings: IC50 measured by BPS
[18] = system: DiscoverX Safety47 panel: 24 GPCRs, 2 nuclear hormone receptors, 3 neurotransmitter transporters, 8 ion channels, 4 kinases, 6 other enzymes; assay: Safety (DiscoverX Safety47 Panel); settings: at 10 μM; 78 assays
[19] = system: Human iPSC-derived neural progenitor cells; assay: Acetylation level assay (Western blot); format: cell-based; settings: 6 h at 37° C.
[20] = in vitro; settings: rat, microsomes
[21] = molecular target: T1, HDAC3; assay: IC50 assay by Nanosyn (Caliper microfluidics mobility shift detection); format: biochemical; settings: IC50 measured by Nanosyn
Protocol: (§2) IC50 measurements were conducted by BPS Biosciences (Table 1) or by Nanosyn (Table 1A) with an established fluorescence assay. […] A=Martinostat (Caliper (microfluidics mobility shift detection) by Nanosyn (same run, duplicates));

[22] = molecular target: T2, HDAC2; assay: as above; format: biochemical; settings: IC50 measured by Nanosyn
Protocol: as §2

[23] = molecular target: T3, HDAC1; assay: as above; format: biochemical; settings: IC50 measured by Nanosyn
Protocol: as §2

[24] = molecular target: T4, HDAC10; assay: as above; format: biochemical; settings: IC50 measured by Nanosyn
Protocol: as §2
Target sequence in this assay (Q969S8 whole entry): as the sequence (Q969S8 whole entry, species assumed) above

[25] = Brain penetrance comparison; settings: in vivo
[26] = molecular target: T4, HDAC10; assay: IC50 assay, BPS Biosciences fluorescence assay; format: biochemical
Target sequence in this assay (Q969S8 whole entry): as the sequence (Q969S8 whole entry, species assumed) above

[27] = molecular target: T2, HDAC2; assay: IC50 assay, BPS Biosciences fluorescence assay; format: biochemical; settings: IC50 measured by BPS
[28] = in vivo; settings: C57BL/6, mouse
[29] = male, C57BL/6, mouse, in vivo, po, 5 mg/kg

T1 sequence (O15379 whole entry): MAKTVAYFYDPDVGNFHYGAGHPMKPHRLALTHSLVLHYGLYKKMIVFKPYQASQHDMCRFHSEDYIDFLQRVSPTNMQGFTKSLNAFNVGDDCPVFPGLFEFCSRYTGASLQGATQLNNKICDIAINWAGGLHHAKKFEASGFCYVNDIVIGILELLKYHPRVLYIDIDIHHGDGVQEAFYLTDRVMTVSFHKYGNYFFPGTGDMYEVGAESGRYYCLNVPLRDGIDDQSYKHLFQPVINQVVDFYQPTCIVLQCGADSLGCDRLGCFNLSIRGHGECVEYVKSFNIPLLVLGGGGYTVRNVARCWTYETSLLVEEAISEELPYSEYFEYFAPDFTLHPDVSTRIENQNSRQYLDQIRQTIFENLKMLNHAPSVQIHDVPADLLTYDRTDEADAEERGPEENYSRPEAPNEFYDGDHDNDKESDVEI
T1 sequence (Q9Y618 395-489 partner): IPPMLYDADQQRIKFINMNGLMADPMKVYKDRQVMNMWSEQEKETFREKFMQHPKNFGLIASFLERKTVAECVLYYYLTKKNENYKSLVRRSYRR

IC50 [1]: 0.024 µM | IC50 [2]: 0.034 µM | IC50 [3]: 3.6 µM | IC50 [4]: 0.065 µM | IC50 [5]: 0.02 µM | IC50 [6]: 0.364 µM | IC50 [7]: 0.025 µM | IC50 [8]: 0.121 µM | IC50 [9]: 0.052 µM | IC50 [10]: 0.033 µM
SMILES: CN(c1ncc(C(=O)NO)cn1)C12CC3CC(CC(C3)C1)C2 [C]

SMILES: CN(Cc1ccc(C(=O)NO)cc1F)CC12CC3CC(CC(C3)C1)C2 [Example 1, 4-(((((3s)-Adamantan-1-yl)methyl)(methyl)amino)methyl)-3-fluoro-N-hydroxybenzamide]
IC50 [11]: > 1 µM | effect on time activity curve of radiolabeled Example 2 ([12]; 1 mg/kg, 30-minutes post radiotracer administration): clear deflection of the time activity curve | effect on brain uptake of radiolabeled Example 2 ([12]; non-radioactive compound at 1 mg/kg): blocking of brain uptake | half-life [13]: 19 min | half-life [14]: < 10 min | half-life [15]: 20 min | binding of radiolabeled Example 2 to rat brain slices [16]: significantly reduced | IC50 [17]: > 1 µM | Safety (DiscoverX Safety47 Panel) [18]: No effect at 10 μM | Histone acetylation (H3K9 and H4K12) ([19]; 10 μM): remained unaltered | amount of cellular acetyl-α-Tubulin ([19]; ACY1215 5 μM, other compounds 10 μM): increased | half-life [20]: < 10 min | IC50 [21]: > 1 µM | IC50 [22]: > 1 µM | IC50 [23]: > 1 µM | IC50 [24]: > 1 µM | Brain-penetrant? [25]: +++ | IC50 ([26]; BPS Biosciences, unit mM printed in cell): > 1 mM | IC50 ([26]; IC50 measured by BPS): > 0.001 mM | inhibition at 1000 µM ([26]; read-out: HDAC10 Percentage Inhibition): 21% | IC50 [27]: > 1 µM | bioavailability ([28]; po): 10% | half-life ([28]; male, ip, 5 mg/kg): 4.8 min | half-life ([28]; male, po, 5 mg/kg): 15 min | Cmax ([28]; male, po, 5 mg/kg, Cmax): 460 nM | T1/2 [29]: 15 min
